# Test results as given in patent US11771672B2, “Use of 2-hydroxyoleic acid for the treatment of systemic lupus erythematosus and other immune pathologies” (THE RESEARCH FOUNDATION FOR THE STATE UNIVERSITY OF NEW YORK, priority 2017, dated 2023).
# Read-outs that look alike come from different tables or passages of the source.
# Tests used:
# SMS = settings: cited from earlier work
# SMS2 = molecular target: T1, SMS2 (Mus musculus, UniProt Q9D4B1); experiment: Elisa analysis of plasma membrane DAG levels in B cells; type: cell-based; settings: purified Sgms2+/+ B cells
# T1 construct: endogenous in cells; host or cells: purified primary splenic B cells from Sgms2+/+ mice (C57BL/6 background); Sgms2-/- B cells as knockout control
# T1 sequence (Q9D4B1 1-365): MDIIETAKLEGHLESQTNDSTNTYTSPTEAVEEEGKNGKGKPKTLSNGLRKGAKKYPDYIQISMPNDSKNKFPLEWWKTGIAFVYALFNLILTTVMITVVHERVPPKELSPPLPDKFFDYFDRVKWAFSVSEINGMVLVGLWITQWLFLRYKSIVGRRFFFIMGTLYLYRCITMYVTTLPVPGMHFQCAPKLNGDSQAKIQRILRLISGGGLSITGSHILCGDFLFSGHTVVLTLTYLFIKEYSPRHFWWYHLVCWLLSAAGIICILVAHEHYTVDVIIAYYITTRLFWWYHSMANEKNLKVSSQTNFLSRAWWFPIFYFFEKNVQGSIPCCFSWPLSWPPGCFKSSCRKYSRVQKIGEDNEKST
# NZBWF1 mice = experiment: Serum total IgG and anti-dsDNA IgG titers by ELISA in NZBWF1 mice (spontaneous SLE mouse model); type: in vivo; settings: female NZBWF1 mice, four weeks
# Description: Given that PKCδ nuclear translocation was promoted by enhancing SMS2 activity with 2OHOA, whether this drug could be adopted to strengthen B cell tolerance in NZBWF1 mice that spontaneously develop SLE due to impaired tolerance caused by multiple genetic variants other than Sgms2 or Prkcd was examined. Remarkably, the expected increase in titers of anti-dsDNA IgGs in the sera of NZBWF1 mice over the same time frame as sham treated mice was impeded by 2OHOA treatment. […] This treatment started when the mouse serum anti-dsDNA IgG level reached the levels between 1,000 ng/ml and 30,000 ng/ml. The titers of serum total IgG and anti-dsDNA IgG were measured by ELISA. Shown in the graph are ratios of the IgG titers after treatment to the titers before treatment. Mann-Whitney test (2 tailed) was used to calculate p values, SEMs, and other parameters as shown in the graph and table. Data represents the results of 15 2OHOA-treated and 10 empty vehicle-treated mice.
# PKCδ = experiment: Western blot analysis of nuclear PKCδ (PKCδ nuclear translocation) in splenic B cells; type: cell-based, mouse
# Description: Generally speaking, PKCs are known to receive DAG on the plasma membrane for their full activation and subsequent subcellular translocation. However, in B cells, the plasma membrane DAG provider that activates PKCδ nuclear translocation is still unknown. Whether SMS2 was the DAG provider for PKCδ activation in mature B cells was therefore tested. In contrast to Sgms2^+/+ naive B cells, nuclear PKCδ was barely detectable in the Sgms2^−/− naive B cells following 24 hr culture. […] This DAG analog-dependent effect supported the involvement of SMS2-derived DAG in activation of PKCδ nuclear translocation.
# To further clarify the mechanism that regulates PKCδ activation by SMS2-generated DAG, whether enhancing SMS2 activity could correspondingly increase PKCδ nuclear translocation in cultured Sgms2^+/+ B cells was tested.
# 293T cells were transfected with plasmid vectors to overexpress FLAG-tagged different SMS2 portions as indicated. Protein lysates from transfected 293T cells were immunoprecipitated with anti-FLAG antibody and then immunoblotted with anti-PKCδ antibody. Sample loading was controlled by inputs of cell lysates. […] Thus, SMS2 is a critical and direct PKCδ activator in mature B cells.
# splenic B cells = experiment: Lysenin toxicity assay of surface SM levels in splenic B cells; type: cell-based, mouse; settings: Sgms2-/- B cells, SM supplementation
# [1] = as disclosed in U.S. Pat. No. 9,359,281
compound,measurement,setting,value
CC/C=C\C/C=C\C/C=C\CCCCCCC(O)C(=O)O (stereo not drawn) [2-hydroxy-alpha-linoleic acid],stimulation of SMS activity,SMS; [1],stimulate SMS activity
CCCCC/C=C\C/C=C\C/C=C\CCCC(O)C(=O)O (stereo not shown) [2-hydroxy-gamma-linoleic acid],stimulation of SMS activity,SMS; [1],stimulate SMS activity
CCCCC/C=C\C/C=C\CCCCCCC(O)C(=O)O (stereo not shown) [2-hydroxylinoleic acid],stimulation of SMS activity,SMS; [1],stimulate SMS activity
CCCCCC/C=C\CCCCCCC(O)C(=O)O (stereo not shown) [2-hydroxypalmitoleic acid],stimulation of SMS activity,SMS; [1],stimulate SMS activity
"CCCCCCCC/C=C\CCCCCCC(O)C(=O)O (stereo not shown) [2OHOA, 2-hydroxyoleic acid]",SMS2-derived DAG level (plasma membrane DAG),SMS2,increased
same,increase in titers of anti-dsDNA IgGs in the sera,"NZBWF1 mice; oral gavage 400 mg/kg per day, vs sham treated mice",impeded
same,total serum IgG titers,NZBWF1 mice; oral gavage 400 mg/kg/day,without reducing the total serum IgG titers
same,PKCδ nuclear translocation,"PKCδ; Sgms2-/- B cells, 2OHOA-treated",but not in Sgms2^−/− B cells
same,PKCδ nuclear translocation,"PKCδ; purified Sgms2+/+ B cells, 2OHOA-treated",increased
"CCCCCCCC/C=C\CCCCCC[C@H](O)C(=O)O [(S)-2OHOA, (S)-2-hydroxyoleic acid]",stimulation of SMS activity,SMS; compared with (R)-2-hydroxyoleic acid or a mixture of the two stereoisomers,more strongly stimulates SMS activity
"C/C=C(/C)C(=O)O[C@H]1C(C)=C[C@]23C(=O)[C@@H](C=C(CO)[C@@H](O)[C@]12O)[C@H]1[C@@H](C[C@H]3C)C1(C)C [I3A, ingenol-3-angelate]",nuclear PKCδ,PKCδ; Sgms2+/+ B cells cultured for 30 minutes,increased nuclear PKCδ
same,nuclear PKCδ,PKCδ; Sgms2-/- B cells cultured for 30 minutes,increased nuclear PKCδ
CCCCCCCCCCCCCC(=O)O[C@@H]1[C@@H](C)[C@@]2(O)[C@@H](C=C(CO)C[C@]3(O)C(=O)C(C)=C[C@@H]23)[C@@H]2C(C)(C)[C@]12OC(C)=O [PMA],PKCδ nuclear translocation,"PKCδ; Sgms2+/+ B cells, PMA",promotion of PKCδ nuclear translocation
same,PKCδ nuclear translocation,"PKCδ; Sgms2-/- B cells, PMA",but not in Sgms2^−/− B cells
sphingomyelin [SM],surface SM level,splenic B cells,Restoration of surface SM level
same,nuclear PKCδ level,"PKCδ; Sgms2-/- B cells, SM supplementation 24 hr",could not restore
